# According to ChEMBL document CHEMBL6092169, “Development of selective heterocyclic PDE4 inhibitors for treatment of psoriasis” (Eur J Med Chem, 2024):
# Calls of active or inactive are those of the source. The calls are words filed in the database; no cut-off is given here.
# Experiments:
# RAW264.7 [1] = test: Anti-inflammatory activity in mouse RAW264.7 cells assessed as inhibition of LPS-induced TNF-alpha production incubated for 24 hrs by ELISA; format: functional, cell-based; details: RAW264.7, 24 h
# [2] = Cytotoxicity against mouse RAW264.7 cells assessed as reduction in cell viability incubated for 24 hrs by CCK-8 assay; format: toxicity, cell-based
# [3] = Cytotoxicity against human HaCaT cells assessed as reduction in cell viability incubated for 24 hrs by CCK-8 assay; format: toxicity, cell-based
# RAW264.7 [4] = test: Anti-inflammatory activity in mouse RAW264.7 cells assessed as inhibition of LPS-induced IL-6 production incubated for 24 hrs by ELISA; format: functional, cell-based; details: RAW264.7, 24 h
# HaCaT = test: Anti-inflammatory activity in human HaCaT cells assessed as inhibition of M5-induced TNF-alpha production incubated for 24 hrs by ELISA; format: functional, cell-based
# [5] = AUC (0 to t) in male ICR mouse at 5 mg/kg, iv measured for 0.083 to 24 hrs by LC-MS/MS analysis; format: ADME, organism-based; details: in vivo, time 0.083-24 hrs
# [6] = AUC (0 to t) in male ICR mouse at 10 mg/kg, po measured for 0.25 to 24 hrs by LC-MS/MS analysis; format: ADME, organism-based; details: in vivo, time 0.25-24 hrs
# [7] = AUC (0 to infinity) in male ICR mouse at 5 mg/kg, iv measured for 0.083 to 24 hrs by LC-MS/MS analysis; format: ADME, organism-based; details: in vivo, time 0.083-24 hrs
# [8] = AUC (0 to infinity) in male ICR mouse at 10 mg/kg, po measured for 0.25 to 24 hrs by LC-MS/MS analysis; format: ADME, organism-based; details: in vivo, time 0.25-24 hrs
# [9] = Initial plasma concentration in male ICR mouse at 5 mg/kg, iv measured for 0.083 to 24 hrs by LC-MS/MS analysis; format: ADME, organism-based; details: time 0.083-24 hrs
# [10] = Cmax in male ICR mouse at 10 mg/kg, po measured for 0.25 to 24 hrs by LC-MS/MS analysis; format: ADME, organism-based; details: in vivo, time 0.25-24 hrs
# [11] = Half life in male ICR mouse at 5 mg/kg, iv measured for 0.083 to 24 hrs by LC-MS/MS analysis; format: ADME, organism-based; details: in vivo, time 0.083-24 hrs
# [12] = Half life in male ICR mouse at 10 mg/kg, po measured for 0.25 to 24 hrs by LC-MS/MS analysis; format: ADME, organism-based; details: in vivo, time 0.25-24 hrs
# [13] = Apparent volume of distribution in male ICR mouse at 5 mg/kg, iv measured for 0.083 to 24 hrs by LC-MS/MS analysis; format: ADME, organism-based; details: in vivo, time 0.083-24 hrs, read-out: Vz
# [14] = Tmax in male ICR mouse at 10 mg/kg, po measured for 0.25 to 24 hrs by LC-MS/MS analysis; format: ADME, organism-based; details: in vivo, time 0.25-24 hrs
# [15] = Clearance in male ICR mouse at 5 mg/kg, iv measured for 0.083 to 24 hrs by LC-MS/MS analysis; format: ADME, organism-based; details: in vivo, time 0.083-24 hrs
# [16] = Oral bioavailability in male ICR mouse at 10 mg/kg measured for 0.25 to 24 hrs by LC-MS/MS analysis; format: ADME, organism-based; details: in vivo, time 0.25-24 hrs
# [17] = Drug absorption in suckling pig skin assessed as skin permeability by measuring transdermal amount per unit area administered topically as 1.2% ointment and measured upto 24 hrs by Franz diffusion cell system; format: ADME, tissue-based, Sus scrofa, Skin of body
# [18] = Drug absorption in suckling pig skin assessed as skin permeability by measuring steady state penetration rate administered topically as 1.2% ointment and measured upto 24 hrs by Franz diffusion cell system; format: ADME, tissue-based, Sus scrofa, Skin of body
# Mus musculus [19] = organism: Mus musculus; test: Anti-inflammatory activity against imiquimod-induced psoriasis in male Balb/c mouse model assessed as reduction in skin lesions pretreated with IMQ for 4 hrs followed by compound addition once daily from day 2 to 8; format: functional, organism-based; details: dose 0.3-1.2 %, time 2-8 day
# Mus musculus [20] = test: Anti-inflammatory activity against imiquimod-induced psoriasis in male Balb/c mouse model assessed as reduction in scales score at 0.3 to 1.2 % administration as ointment pretreated with IMQ for 4 hrs followed by compound addition once daily from day 2 to 8; format: functional, organism-based; details: dose 0.3-1.2 %, time 2-8 day
# Mus musculus [21] = test: Anti-inflammatory activity against imiquimod-induced psoriasis in male Balb/c mouse model assessed as reduction in thickness score at 0.3 to 1.2 % administration as ointment pretreated with IMQ for 4 hrs followed by compound addition once daily from day 2 to 8; format: functional, organism-based; details: dose 0.3-1.2 %, time 2-8 day
# Mus musculus [22] = test: Anti-inflammatory activity against imiquimod-induced psoriasis in male Balb/c mouse model assessed as reduction in erythema score at 0.3 to 1.2 % administration as ointment pretreated with IMQ for 4 hrs followed by compound addition once daily from day 2 to 8; format: functional, organism-based; details: dose 0.3-1.2 %, time 2-8 day
# Mus musculus [23] = test: Anti-inflammatory activity against imiquimod-induced psoriasis in male Balb/c mouse model assessed as reduction in spleen weight at 0.3 to 1.2 % administration as ointment pretreated with IMQ for 4 hrs followed by compound addition once daily from day 2 to 8; format: functional, organism-based; details: dose 0.3-1.2 %, time 2-8 day
# Mus musculus [24] = test: Anti-inflammatory activity against imiquimod-induced psoriasis in male Balb/c mouse model assessed as inhibition of IL-6 expression in skin at 0.3 to 1.2 % administration as ointment pretreated with IMQ for 4 hrs followed by compound addition once daily from day 2 to 8 by ELISA; format: functional, organism-based; details: dose 0.3-1.2 %, time 2-8 day
# Mus musculus [25] = test: Anti-inflammatory activity against imiquimod-induced psoriasis in male Balb/c mouse model assessed as inhibition of TNF-alpha expression in skin at 0.3 to 1.2 % administration as ointment pretreated with IMQ for 4 hrs followed by compound addition once daily from day 2 to 8 by ELISA; format: functional, organism-based; details: dose 0.3-1.2 %, time 2-8 day
# Mus musculus [26] = test: Anti-inflammatory activity against imiquimod-induced psoriasis in male Balb/c mouse model assessed as increase in skin thickness at 0.3 to 1.2 % administration as ointment pretreated with IMQ for 4 hrs followed by compound addition once daily from day 2 to 8 by H and E staining based microscopic analysis; format: functional, organism-based; details: dose 0.3-1.2 %, time 2-8 day
# Mus musculus [27] = test: Anti-inflammatory activity against imiquimod-induced psoriasis in male Balb/c mouse model assessed as increase in skin scales at 0.3 to 1.2 % administration as ointment pretreated with IMQ for 4 hrs followed by compound addition once daily from day 2 to 8 by H and E staining based microscopic analysis; format: functional, organism-based; details: dose 0.3-1.2 %, time 2-8 day
# Mus musculus [28] = test: Anti-inflammatory activity against imiquimod-induced psoriasis in male Balb/c mouse model assessed as reduction in immune cell infiltration at 0.3 to 1.2 % administration as ointment pretreated with IMQ for 4 hrs followed by compound addition once daily from day 2 to 8 by H and E staining based microscopic analysis; format: functional, organism-based; details: dose 0.3-1.2 %, time 2-8 day
# Mus musculus [29] = test: Anti-inflammatory activity against imiquimod-induced psoriasis in male Balb/c mouse model assessed as reduction in Ki67+ cells in back skin at 0.3 to 1.2 % administration as ointment pretreated with IMQ for 4 hrs followed by compound addition once daily from day 2 to 8 by Immunohistochemistry based microscopic analysis; format: functional, organism-based; details: dose 0.3-1.2 %, time 2-8 day
compound,measurement,setting,value
O=C(NCc1cc(F)ccc1F)c1c[nH]c(-c2ccc(OC(F)F)c(OCC3CC3)c2)n1,IC50,RAW264.7 [1],21.4 µM
same,CC50 at 24 h,[2],> 50 µM
same,CC50 at 24 h,[3],> 50 µM
same,IC50,RAW264.7 [4],29.2 µM
same,IC50,HaCaT,22.9 µM
same,AUC(0-t),[5],5010 ng·h/mL
same,AUC(0-t),[6],3570 ng·h/mL
same,AUC(0-inf),[7],5020 ng·h/mL
same,AUC(0-inf),[8],3930 ng·h/mL
same,C0,[9],7320 ng/mL
same,Cmax,[10],810 ng/mL
same,half-life,[11],0.94 h
same,half-life,[12],2.21 h
same,Vd,[13],1.35 L/kg
same,Tmax,[14],1 h
same,clearance,[15],16.6 mL/min/kg
same,bioavailability,[16],35.6%
same,Drug absorption,[17],81.9 microg/cm2
same,Jss,[18],3.45 ug/cm2.hr
same,Activity,Mus musculus [19],Dose-dependent-effect
same,Activity,Mus musculus [20],Active
same,Activity,Mus musculus [21],Active
same,Activity,Mus musculus [22],Active
same,Activity,Mus musculus [23],Active
same,Activity,Mus musculus [24],Active
same,Activity,Mus musculus [25],Active
same,Activity,Mus musculus [26],Active
same,Activity,Mus musculus [27],Active
same,Activity,Mus musculus [28],Active
same,Activity,Mus musculus [29],Active
